Legend:
Plasma [1] = assay: Drug level in human plasma treated with [14C}LY2452473 at 15 mg, po after 4 hrs administered as single dose by HPLC analysis; type: ADME, organism-based; settings: in vivo
Cytochrome P450 1A2 = molecular target: T1, Cytochrome P450 1A2 (Homo sapiens, UniProt P05177); assay: Drug metabolism assessed as human recombinant CYP1A2-mediated drug depletion by LC-MS/MS method; type: ADME; settings: recombinant enzyme
T1 sequence (P05177 whole entry): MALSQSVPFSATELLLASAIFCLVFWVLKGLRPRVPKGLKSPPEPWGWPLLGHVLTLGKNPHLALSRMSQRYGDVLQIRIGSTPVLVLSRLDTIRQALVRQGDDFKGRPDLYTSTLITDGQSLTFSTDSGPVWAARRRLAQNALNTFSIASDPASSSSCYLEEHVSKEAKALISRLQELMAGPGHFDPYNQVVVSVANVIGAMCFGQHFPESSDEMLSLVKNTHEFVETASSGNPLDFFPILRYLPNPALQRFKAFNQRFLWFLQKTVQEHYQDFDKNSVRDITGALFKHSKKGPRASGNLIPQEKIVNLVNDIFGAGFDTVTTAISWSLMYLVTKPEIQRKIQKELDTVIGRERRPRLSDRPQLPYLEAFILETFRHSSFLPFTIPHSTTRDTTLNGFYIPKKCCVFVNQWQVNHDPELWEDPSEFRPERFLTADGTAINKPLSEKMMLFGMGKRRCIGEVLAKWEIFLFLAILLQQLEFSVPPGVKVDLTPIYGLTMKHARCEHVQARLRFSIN

Homo sapiens [2] = assay: Terminal half life in human at 15 mg, po administered as single dose by liquid scintillation counting method; type: ADME, organism-based; settings: in vivo
Cytochrome P450 2B6 = molecular target: T2, Cytochrome P450 2B6 (Homo sapiens, UniProt P20813); assay: Drug metabolism assessed as human recombinant CYP2B6-mediated drug depletion by LC-MS/MS method; type: ADME; settings: recombinant enzyme
T2 sequence (P20813 whole entry): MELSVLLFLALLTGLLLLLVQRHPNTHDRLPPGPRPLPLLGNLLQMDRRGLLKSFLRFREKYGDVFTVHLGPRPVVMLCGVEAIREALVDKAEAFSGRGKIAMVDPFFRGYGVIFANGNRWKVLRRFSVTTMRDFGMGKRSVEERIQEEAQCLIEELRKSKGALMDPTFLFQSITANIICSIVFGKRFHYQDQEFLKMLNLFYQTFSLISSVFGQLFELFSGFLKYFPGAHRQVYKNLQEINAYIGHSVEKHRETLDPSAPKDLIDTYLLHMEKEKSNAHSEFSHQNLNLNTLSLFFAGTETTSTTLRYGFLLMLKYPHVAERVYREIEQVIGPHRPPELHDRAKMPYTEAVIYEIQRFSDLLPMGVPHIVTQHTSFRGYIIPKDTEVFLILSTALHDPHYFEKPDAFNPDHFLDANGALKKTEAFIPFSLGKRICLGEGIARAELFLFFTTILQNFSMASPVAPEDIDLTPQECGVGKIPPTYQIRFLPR

Cytochrome P450 2C9 = Cytochrome P450 2C9 (Homo sapiens, UniProt P11712); assay: Fraction metabolized assessed as human recombinant CYP2C9-mediated drug depletion by LC-MS/MS method relative to total normalized intrinsic clearance; type: ADME; settings: recombinant enzyme
Cytochrome P450 2C19 [3] = molecular target: T3, Cytochrome P450 2C19 (Homo sapiens, UniProt P33261); assay: Normalized intrinsic clearance assessed as human recombinant CYP2C19-mediated drug depletion per pmol protein by LC-MS/MS method; type: ADME; settings: recombinant enzyme
Homo sapiens [4] = assay: Tlast in human at 15 mg, po administered as single dose by liquid scintillation counting method; type: ADME, organism-based; settings: in vivo
Homo sapiens [5] = assay: Tmax in human at 15 mg, po administered as single dose by liquid scintillation counting method; type: ADME, organism-based; settings: in vivo
Plasma [6] = assay: Drug level in human plasma treated with [14C}LY2452473 at 15 mg, po after 4 hrs administered as single dose by HPLC analysis relative to total radioactivity; type: ADME, organism-based; settings: in vivo
[7] = Total drug excretion in human treated with [14C}LY2452473 at 15 mg, po administered as single dose by HPLC analysis; type: ADME, organism-based; settings: in vivo, read-out: Drug excretion
Plasma [8] = assay: Drug level in plasma of human treated with [14C}LY2452473 at 15 mg, po administered as single dose by LC-MS/MS method; type: ADME, organism-based; settings: in vivo
Homo sapiens [9] = assay: Apparent volume of distribution during terminal phase in human at 15 mg, po administered as single dose by liquid scintillation counting method; type: ADME, organism-based; settings: in vivo
Plasma [10] = assay: Drug level in human plasma treated with [14C}LY2452473 at 15 mg, po after 8 hrs administered as single dose by HPLC analysis; type: ADME, organism-based; settings: in vivo
Cytochrome P450 3A4 [11] = molecular target: T4, Cytochrome P450 3A4 (Homo sapiens, UniProt P08684); assay: Fraction metabolized assessed as human recombinant CYP3A4-mediated drug depletion by LC-MS/MS method relative to total normalized intrinsic clearance; type: ADME; settings: recombinant enzyme
Cytochrome P450 3A4 [12] = molecular target: T4, Cytochrome P450 3A4; assay: Drug metabolism in human liver microsomes assessed as CYP3A4-mediated drug depletion in presence of CYP2D6 inhibitor quinidine by LC-MS/MS method; type: ADME
Homo sapiens [13] = assay: AUC (0 to infinity) in human at 15 mg, po administered as single dose by liquid scintillation counting method; type: ADME, organism-based, Plasma; parameters: dose 15 mg, time infinity, route oral; settings: in vivo
Cytochrome P450 3A4 [14] = molecular target: T4, Cytochrome P450 3A4; assay: Intrinsic clearance assessed as human recombinant CYP3A4-mediated drug depletion per pmol protein by LC-MS/MS method; type: ADME; settings: recombinant enzyme
Cytochrome P450 3A5 = Cytochrome P450 3A5 (Homo sapiens, UniProt P20815); assay: Drug metabolism assessed as human recombinant CYP3A5-mediated drug depletion by LC-MS/MS method; type: ADME; settings: recombinant enzyme
Homo sapiens [15] = assay: Apparent total body clearance in human at 15 mg, po administered as single dose by liquid scintillation counting method; type: ADME, organism-based; settings: in vivo
Cytochrome P450 2C19 [16] = molecular target: T3, Cytochrome P450 2C19; assay: Drug metabolism in human liver microsomes assessed as CYP3A4-mediated drug depletion in presence of CYP2C19 inhibitor modafinil by LC-MS/MS method; type: ADME
Homo sapiens [17] = assay: Cmax in human at 15 mg, po administered as single dose by liquid scintillation counting method; type: ADME, organism-based; parameters: dose 15 mg, route oral; settings: in vivo
Cytochrome P450 3A4 [18] = molecular target: T4, Cytochrome P450 3A4; assay: Normalized intrinsic clearance assessed as human recombinant CYP3A4-mediated drug depletion per pmol protein by LC-MS/MS method; type: ADME; settings: recombinant enzyme
Cytochrome P450 2D6 = Cytochrome P450 2D6 (Homo sapiens, UniProt P10635); assay: Intrinsic clearance assessed as human recombinant CYP2D6-mediated drug depletion per pmol protein by LC-MS/MS method; type: ADME; settings: recombinant enzyme
Homo sapiens [19] = assay: AUC (0 to last) in human at 15 mg, po administered as single dose by liquid scintillation counting method; type: ADME, organism-based, Plasma; parameters: dose 15 mg, time 0 - last, route oral; settings: in vivo
[20] = Drug level in urine of human treated with [14C}LY2452473 at 15 mg, po administered as single dose by LC-MS/MS method; type: ADME, organism-based; settings: in vivo

T4 sequence (P08684 whole entry): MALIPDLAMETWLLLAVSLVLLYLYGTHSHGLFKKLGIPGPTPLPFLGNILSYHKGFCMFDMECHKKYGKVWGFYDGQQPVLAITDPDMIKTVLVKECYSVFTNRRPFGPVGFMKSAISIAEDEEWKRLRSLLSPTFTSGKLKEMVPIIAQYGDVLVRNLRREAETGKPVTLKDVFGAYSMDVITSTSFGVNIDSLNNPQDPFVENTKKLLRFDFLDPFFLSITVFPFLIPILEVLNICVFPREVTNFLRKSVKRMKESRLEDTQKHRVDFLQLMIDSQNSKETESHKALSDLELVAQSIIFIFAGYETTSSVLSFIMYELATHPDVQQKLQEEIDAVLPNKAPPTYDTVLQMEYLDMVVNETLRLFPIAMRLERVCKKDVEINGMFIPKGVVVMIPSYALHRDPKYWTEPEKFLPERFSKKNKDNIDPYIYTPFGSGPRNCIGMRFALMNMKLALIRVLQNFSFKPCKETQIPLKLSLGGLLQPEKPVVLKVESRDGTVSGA
T3 sequence (P33261 whole entry): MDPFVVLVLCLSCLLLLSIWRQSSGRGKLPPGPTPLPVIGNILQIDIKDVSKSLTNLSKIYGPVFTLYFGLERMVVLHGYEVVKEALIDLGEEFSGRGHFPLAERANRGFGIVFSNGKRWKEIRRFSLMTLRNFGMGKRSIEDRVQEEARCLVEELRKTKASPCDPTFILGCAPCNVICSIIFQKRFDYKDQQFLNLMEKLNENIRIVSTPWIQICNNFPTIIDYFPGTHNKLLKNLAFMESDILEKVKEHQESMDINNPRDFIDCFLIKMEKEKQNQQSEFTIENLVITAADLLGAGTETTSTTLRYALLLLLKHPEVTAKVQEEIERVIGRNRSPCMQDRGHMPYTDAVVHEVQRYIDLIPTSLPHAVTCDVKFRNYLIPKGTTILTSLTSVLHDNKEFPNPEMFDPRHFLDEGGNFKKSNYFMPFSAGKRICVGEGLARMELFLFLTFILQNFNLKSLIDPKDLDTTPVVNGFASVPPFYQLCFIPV
Cytochrome P450 2D6, sequence (P10635 whole entry): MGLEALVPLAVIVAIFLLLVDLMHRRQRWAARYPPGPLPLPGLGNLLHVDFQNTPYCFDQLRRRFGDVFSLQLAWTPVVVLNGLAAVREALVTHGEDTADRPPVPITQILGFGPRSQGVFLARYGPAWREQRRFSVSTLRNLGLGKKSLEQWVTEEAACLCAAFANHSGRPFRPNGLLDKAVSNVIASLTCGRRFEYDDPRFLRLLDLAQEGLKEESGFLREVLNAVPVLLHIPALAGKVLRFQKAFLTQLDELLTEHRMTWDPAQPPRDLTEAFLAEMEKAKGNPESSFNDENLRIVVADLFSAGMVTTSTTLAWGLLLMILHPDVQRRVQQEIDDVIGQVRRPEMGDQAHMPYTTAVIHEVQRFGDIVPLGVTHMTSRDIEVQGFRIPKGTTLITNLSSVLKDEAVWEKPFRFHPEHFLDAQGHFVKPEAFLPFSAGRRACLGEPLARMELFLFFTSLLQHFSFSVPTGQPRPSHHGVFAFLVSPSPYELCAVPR
Cytochrome P450 2C9, sequence (P11712 whole entry): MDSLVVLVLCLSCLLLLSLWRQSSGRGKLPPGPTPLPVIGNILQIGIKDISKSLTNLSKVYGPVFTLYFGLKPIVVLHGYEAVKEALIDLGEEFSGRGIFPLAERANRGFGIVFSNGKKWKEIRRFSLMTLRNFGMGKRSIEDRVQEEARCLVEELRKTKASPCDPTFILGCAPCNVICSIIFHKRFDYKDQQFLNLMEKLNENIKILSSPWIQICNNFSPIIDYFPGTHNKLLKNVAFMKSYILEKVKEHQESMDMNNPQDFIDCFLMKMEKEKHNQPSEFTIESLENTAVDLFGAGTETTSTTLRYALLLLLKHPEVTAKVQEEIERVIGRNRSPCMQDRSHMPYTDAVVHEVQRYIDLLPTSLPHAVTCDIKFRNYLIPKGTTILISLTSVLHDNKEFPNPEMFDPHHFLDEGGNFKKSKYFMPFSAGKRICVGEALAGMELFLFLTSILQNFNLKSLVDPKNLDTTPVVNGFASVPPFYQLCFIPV
Cytochrome P450 3A5, sequence (P20815 whole entry): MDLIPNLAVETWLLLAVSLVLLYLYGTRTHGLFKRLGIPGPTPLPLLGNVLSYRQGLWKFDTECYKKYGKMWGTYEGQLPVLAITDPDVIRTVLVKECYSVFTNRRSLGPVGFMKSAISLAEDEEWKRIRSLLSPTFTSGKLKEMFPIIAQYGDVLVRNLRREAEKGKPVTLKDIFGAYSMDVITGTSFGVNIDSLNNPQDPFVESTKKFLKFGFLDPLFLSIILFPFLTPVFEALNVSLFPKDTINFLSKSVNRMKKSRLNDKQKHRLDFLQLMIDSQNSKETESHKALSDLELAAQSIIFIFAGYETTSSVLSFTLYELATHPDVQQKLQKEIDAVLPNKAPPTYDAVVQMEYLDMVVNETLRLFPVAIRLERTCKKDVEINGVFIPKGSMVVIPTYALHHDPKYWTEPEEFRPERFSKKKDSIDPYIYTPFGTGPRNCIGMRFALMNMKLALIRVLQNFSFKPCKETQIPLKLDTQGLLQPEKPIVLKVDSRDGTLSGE

Structure (SMILES): CC(C)OC(=O)N[C@H]1Cc2c(n(Cc3ccccn3)c3ccc(C#N)cc23)C1 [LY2452473]
- Drug uptake (Plasma [1]): 66.33%
- Drug metabolism (Cytochrome P450 1A2): metabolite_not_detected
- beta t1/2 (Homo sapiens [2]): 27 h
- Drug metabolism (Cytochrome P450 2B6): metabolite_not_detected
- Fm (Cytochrome P450 2C9): 8.5%
- CL (Cytochrome P450 2C19 [3]): 5.7 µL/min
- Tlast (Homo sapiens [4]): 168 h
- Tmax (Homo sapiens [5]): 2 h
- Drug uptake (Plasma [6]): 42.2%
- dose excreted [7]: 1.84%
- Drug metabolism (Plasma [8]): metabolite_detected
- Vz/F (Homo sapiens [9]): 444 L
- Drug uptake (Plasma [10]): 42.36%
- Fm (Cytochrome P450 3A4 [11]): 68%
- Drug metabolism (Cytochrome P450 3A4 [12]): metabolite_not_detected
- AUC (Homo sapiens [13]): 1330 ng·h/mL
- CL (Cytochrome P450 3A4 [14]): 0.75 µL/min
- Drug metabolism (Cytochrome P450 3A5): metabolite_not_detected
- CLt/F (Homo sapiens [15]): 11 L/h
- Drug metabolism (Cytochrome P450 2C19 [16]): metabolite_not_detected
- Cmax (Homo sapiens [17]): 91.5 ng/mL
- CL (Cytochrome P450 3A4 [18]): 80 µL/min
- CL (Cytochrome P450 2D6): 0.3 µL/min
- AUClast (Homo sapiens [19]): 1310 ng·h/mL
- Drug metabolism [20]: metabolite_detected
